Like-named read-outs stand apart in the source and are kept apart here.
Legend:
[1] = tested on: HCV replicons containing proteases from 40 samples, genotypes 1 to 5; test: Transient replicon assay with patient proteases, all 40 samples; type: cell-based; conditions: Hepatitis C virus, 40 clinical samples
Description: […]. Each of the NS3 gene sequences from genotypes 1, 2, and 4, with the exception of two genotype 2b sequences, was derived from serum or plasma from an HCV-infected patient by bulk PCR amplification, producing a population of sequences representing the viral quasispecies. Two genotype 2b sequences were synthesized based on the consensus sequences of the respective samples. One genotype 3a sequence was synthesized based on a consensus sequence from the sequences available in the Los Alamos HCV sequence database, and another genotype 3a sequence was a clonal sequence derived from a patient sample. The genotype 5a sequence (strain SA13) was synthesized based on the published sequence of the HCV isolate ([48]).
Transient replicons containing NS3 from clinical samples from HCV genotype 1a- and 1b-infected patients were described previously ([28]). For the transient replicons containing NS3/4A from samples from genotype 3a-infected patients, the first 251 amino acids of NS3 and the region encoding NS4A amino acids 21 to 32 (numbered relative to the NS4A coding region) from these HCV samples were cloned to replace the corresponding residues from the backbone of a genotype 1b Con1 shuttle vector. […]

HCV NS3/4A protease GT1b = HCV NS3/4A protease GT1b (Hepatitis C virus genotype 1b, UniProt Q9WPH5); test: HCV NS3/4A protease biochemical assay; conditions: 30 min preincubation, read-out: Mean IC50 ± SD
Description: (§1) . […] Genes encoding NS3/4A were derived from laboratory strains 1a-H77 (GenBank accession number NC_004102) and 1b-N (GenBank accession number AF139594) or from clinical samples from patients infected with genotype 2a, 2b, 3a, or 4a. All patients provided written informed consent. Clinical studies were designed according to Good Clinical Practice guidelines, the Declaration of Helsinki, and applicable local regulations, with independent ethics committee or institutional review board approval for all study sites. The genotype 5a NS3/4A gene sequence was synthetically constructed based on the sequence of the clinical isolate SA13 (GenBank accession number AF064490) ([48]), whereas the genotype 6a NS3/4A gene sequence was synthetically constructed based on a consensus sequence derived from the alignment of 15 genotype 6a sequences available in GenBank. The NS3/4A genes were each cloned into the protein expression vector pET14b (Novagen, Madison, WI), and a clone with an NS3/4A protease sequence that matched the consensus sequence for each sample was subsequently selected for protein expression and purification. Protease activity was measured by continuous monitoring of the fluorescence change associated with the cleavage of a fluorogenic depsipeptide (EDANS/DABCYL) substrate using a purified recombinant HCV NS3/4A protease as described previously ([49]). […]

HCV NS3/4A protease GT6a = HCV NS3/4A protease GT6a (Hepatitis C virus genotype 6a, UniProt O39927); test: HCV NS3/4A protease biochemical assay; conditions: 30 min preincubation, read-out: Mean IC50 ± SD
Description: as §1

HCV NS3/4A protease GT2b = HCV NS3/4A protease GT2b (Hepatitis C virus genotype 2b, UniProt P26661); test: HCV NS3/4A protease biochemical assay; conditions: 30 min preincubation, read-out: Mean IC50 ± SD
Description: as §1

Compound: CC(C)(C)[C@@H]1NC(=O)O[C@@H]2CCC[C@H]2OC/C=C/C(F)(F)c2nc3ccccc3nc2O[C@@H]2C[C@@H](C(=O)N[C@]3(C(=O)NS(=O)(=O)C4(C)CC4)C[C@H]3C(F)F)N(C2)C1=O [Glecaprevir, (3aR,7S,10S,12R,21E,24aR)-7-tert-butyl-N-[(1R,2R)-2-(difluoromethyl)-1-{[(1-methylcyclopropyl)sulfonyl]carbamoyl}cyclopropyl]-20,20-difluoro-5,8-dioxo-2,3,3a,5,6,7,8,11,12,20,23,24a-dodecahydro-1H,10H-9,12-methanocyclopenta[18,19][1,10,17,3,6]trioxadiazacyclononadecino[11,12-b]quinoxaline-10-carboxamide]
- EC50 ([1]; read-out: EC50 range, overall): 0.05 to 3.8 nM
- EC50 ([1]; read-out: Overall median EC50): 0.3 nM
- IC50 (HCV NS3/4A protease GT1b): 8.9 ± 1.6 nM
- IC50 (HCV NS3/4A protease GT6a): 11.3 ± 1.8 nM
- IC50 (HCV NS3/4A protease GT2b): 3.8 ± 0.96 nM
